# From patent publication US12338256B2, “Aza-tetracyclic oxazepine compounds and uses thereof” (Genentech, Inc., priority 2022, dated 2025)
# Read-outs that look alike come from different tables or passages of the source.
# What was measured:
# [1] = test system: HPAC (homozygous mutant KRAS G12D human pancreatic cell line); experiment: KRAS 3D-Cell Proliferation Assay, HPAC (Example 503); assay type: cell-based; conditions: Homo sapiens, 168 h, HPAC 3D culture, 7 days, CellTiter-Glo 3D, read-out: Prolif HPAC 3D ATP IC50
# Outline: (§1)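 IC50s come from a 4-parameter Hill fit of luminescence (CellTiter-Glo 3D) normalized between DMSO (0%) and 1 μM staurosporine (100%). Cells in low-attachment 3D culture, RPMI-1640 with 10% FBS, received serial compound dilutions (0.3% DMSO) after overnight and were incubated 7 days at 37 °C.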
# [2] = test system: H1975 (KRAS wild type human lung adenocarcinoma cell line); experiment: KRAS 3D-Cell Proliferation Assay, H1975 (Example 503); assay type: cell-based; conditions: Homo sapiens, NCI-H1975, 168 h, H1975 3D culture, 7 days, CellTiter-Glo 3D; read-out: Prolif H1975 3D ATP IC50
# Outline: as §1
SMILES,IC50 ([1]; HPAC),IC50 [2],IC50 [1]
"Cc1nc(N)cc(-c2nc3c4c(nc(OCC5(CN6CC7CCC(C6)O7)CC5)nc4c2F)N2C[C@H]4CC[C@H](N4)[C@H]2[C@H](C)O3)c1C(F)(F)F [Compound 207, 4-((5S,5aS,6S,9R)-12-((1-((8-oxa-3-azabicyclo[3.2.1]octan-3-yl)methyl)cyclopropyl)methoxy)-1-fluoro-5-methyl-5a,6,7,8,9,10-hexahydro-5H-4-oxa-3,10a,11,13,14-pentaaza-6,9-methanonaphtho[1,8-ab]heptalene-2-yl)-6-methyl-5-(trifluoromethyl)pyridin-2-amine]",2.36 nM,1420 nM,–
"Cc1c(F)c(N)cc(-c2nc3c4c(nc(OC[C@@]56CCCN5CCN(C)C6=O)nc4c2F)N2C[C@H]4CC[C@H](N4)[C@H]2[C@H](C)O3)c1C(F)(F)F (single isomer, unassigned) [137 (isomer 1)]",127 nM,20000 nM,–
"C[C@@H]1Oc2nc(-c3cc(N)c(=O)n(C)c3C(F)(F)F)c(F)c3nc(OC[C@@]45CCCN4C[C@H](F)C5)nc(c23)N2C[C@H]3CC[C@H](N3)[C@@H]12 [Compound 184, 3-Amino-5-((5S,5aS,6S,9R)-1-fluoro-12-(((2R,7aS)-2-fluorotetrahydro-1H-pyrrolizin-7a(5H)-yl)methoxy)-5-methyl-5a,6,7,8,9,10-hexahydro-5H-4-oxa-3,10a,11,13,14-pentaaza-6,9-methanonaphtho[1,8-ab]heptalene-2-yl)-1-methyl-6-(trifluoromethyl)pyridin-2(1H)-one]",147 nM,20000 nM,–
"Cc1nc(N)c(Cl)c(-c2nc3c4c(nc(OC[C@@]56CCCN5C[C@H](F)C6)nc4c2F)N2C[C@H]4CC[C@H](N4)[C@H]2[C@H](C)O3)c1C(F)(F)F [Compound 197, 3-Chloro-4-((5S,5aS,6S,9R)-1-fluoro-12-(((2R,7aS)-2-fluorotetrahydro-1H-pyrrolizin-7a(5H)-yl)methoxy)-5-methyl-5a,6,7,8,9,10-hexahydro-5H-4-oxa-3,10a,11,13,14-pentaaza-6,9-methanonaphtho[1,8-ab]heptalen-2-yl)-6-methyl-5-(trifluoromethyl)pyridin-2-amine]",9.79 nM,468 nM,–
"Cc1c(F)c(N)cc(-c2nc3c4c(nc(OC[C@@H]5CO[C@H]6CC[N@]5C6)nc4c2F)N2C[C@H]4CC[C@H](N4)[C@H]2[C@H](C)O3)c1C(F)(F)F [Compound 135, 5-((5S,5aS,6S,9R)-12-(((1R,2S,5S)-4-Oxa-1-azabicyclo[3.2.1]octan-2-yl)methoxy)-1-fluoro-5-methyl-5a,6,7,8,9,10-hexahydro-5H-4-oxa-3,10a,11,13,14-pentaaza-6,9-methanonaphtho[1,8-ab]heptalen-2-yl)-2-fluoro-3-methyl-4-(trifluoromethyl)aniline]",95.6 nM,20000 nM,–
"Cc1nc(N)c(F)c(-c2nc3c4c(nc(OCC5(CN6C[C@H]7C[C@@H]6CO7)CC5)nc4c2F)N2C[C@H]4CC[C@H](N4)[C@H]2[C@H](C)O3)c1C(F)(F)F [Compound 223, 4-((5S,5aS,6S,9R)-12-((1-(((1R,4R)-2-Oxa-5-azabicyclo[2.2.1]heptan-5-yl)methyl)cyclopropyl)methoxy)-1-fluoro-5-methyl-5a,6,7,8,9,10-hexahydro-5H-4-oxa-3,10a,11,13,14-pentaaza-6,9-methanonaphtho[1,8-ab]heptalene-2-yl)-3-fluoro-6-methyl-5-(trifluoromethyl)pyridin-2-amine]",6.46 nM,1230 nM,–
"Cc1nc(N)cc(-c2nc3c4c(nc(OCC5(CN6CCC7(C6)CC7(F)F)CC5)nc4c2F)N2C[C@H]4CC[C@H](N4)[C@H]2[C@H](C)O3)c1C(F)(F)F (stereo partly drawn) [Compound 279, 4-((5S,5aS,6S,9R)-12-((1-((1,1-difluoro-5-azaspiro[2.4]heptan-5-yl)methyl)cyclopropyl)methoxy)-1-fluoro-5-methyl-5a,6,7,8,9,10-hexahydro-5H-4-oxa-3,10a,11,13,14-pentaaza[6,9]methanonaphtho[1,8-ab]heptalene-2-yl)-6-methyl-5-(trifluoromethyl)pyridin-2-amine]",2.02 nM,1270 nM,–
"Cc1c(F)c(N)nc(-c2nc3c4c(nc(OC[C@@]56CCCN5CC5(CC5(F)F)C6)nc4c2F)N2C[C@H]4CC[C@H](N4)[C@H]2[C@H](C)O3)c1C(F)(F)F (stereo partly drawn) [Compound 192, 6-((5S,5aS,6S,9R)-12-(((7a′S)-2,2-Difluorodihydro-1′H,3′H-spiro[cyclopropane-1,2′-pyrrolizin]-7a′(5′H)-yl)methoxy)-1-fluoro-5-methyl-5a,6,7,8,9,10-hexahydro-5H-4-oxa-3,10a,11,13,14-pentaaza[6,9]methanonaphtho[1,8-ab]heptalene-2-yl)-3-fluoro-4-methyl-5-(trifluoromethyl)pyridin-2-amine]",7.17 nM,1280 nM,–
"Cc1c(F)c(N)cc(-c2nc3c4c(nc(OC[C@@]5(CC(F)F)CCCN5C)nc4c2F)N2C[C@H]4CC[C@H](N4)[C@H]2[C@H](C)O3)c1C(F)(F)F (single isomer, unassigned) [150 (isomer 1)]",13.7 nM,3770 nM,–
"C[C@@H]1Oc2nc(-c3cc(N)c(F)c(C4CC4)c3C(F)(F)F)c(F)c3nc(OC[C@@H]4CC[C@H]5COCCN54)nc(c23)N2C[C@H]3CC[C@H](N3)[C@@H]12 [Compound 233, 3-Cyclopropyl-2-fluoro-5-((5S,5aS,6S,9R)-1-fluoro-12-(((6S,8aS)-hexahydro-1H-pyrrolo[2,1-c][1,4]oxazin-6-yl)methoxy)-5-methyl-5a,6,7,8,9,10-hexahydro-5H-4-oxa-3,10a,11,13,14-pentaaza-6,9-methanonaphtho[1,8-ab]heptalen-2-yl)-4-(trifluoromethyl)aniline]",2000 nM,5400 nM,–
"Cc1c(F)c(N)c(F)c(-c2nc3c4c(nc(OC[C@@]56CCCN5C[C@H](F)C6)nc4c2F)N2C[C@H]4CC[C@H](N4)[C@H]2[C@H](C)O3)c1Cl [Compound 195, 4-Chloro-2,6-difluoro-3-((5S,5aS,6S,9R)-1-fluoro-12-(((2R,7aS)-2-fluorotetrahydro-1H-pyrrolizin-7a(5H)-yl)methoxy)-5-methyl-5a,6,7,8,9,10-hexahydro-5H-4-oxa-3,10a,11,13,14-pentaaza-6,9-methanonaphtho[1,8-ab]heptalen-2-yl)-5-methylaniline]",22.1 nM,1340 nM,–
"Cc1nc(N)cc(-c2nc3c4c(nc(OCC5(CN6CC[C@H](F)C6)CC5)nc4c2F)N2C[C@H]4CC[C@H](N4)[C@H]2[C@H](C)O3)c1C(F)(F)F [Compound 283, 4-((5S,5aS,6S,9R)-1-fluoro-12-((1-(((S)-3-fluoropyrrolidin-1-yl)methyl)cyclopropyl)methoxy)-5-methyl-5a,6,7,8,9,10-hexahydro-5H-4-oxa-3,10a,11,13,14-pentaaza-6,9-methanonaphtho[1,8-ab]heptalene-2-yl)-6-methyl-5-(trifluoromethyl)pyridin-2-amine]",1.58 nM,577 nM,–
"CCc1cccc2nc(N)cc(-c3nc4c5c(nc(OC[C@@]67CCCN6C[C@H](F)C7)nc5c3F)N3C[C@H]5CC[C@H](N5)[C@H]3[C@H](C)O4)c12 [Compound 179, 5-Ethyl-4-((5S,5aS,6S,9R)-1-fluoro-12-(((2R,7aS)-2-fluorotetrahydro-1H-pyrrolizin-7a(5H)-yl)methoxy)-5-methyl-5a,6,7,8,9,10-hexahydro-5H-4-oxa-3,10a,11,13,14-pentaaza-6,9-methanonaphtho[1,8-ab]heptalene-2-yl)quinolin-2-amine]",294 nM,8410 nM,–
"Cc1nc(N)c(F)c(-c2nc3c4c(nc(OC[C@@]56CCCN5C[C@H](F)C6)nc4c2F)N2C[C@H]4CC[C@H](N4)[C@H]2[C@H](C(F)(F)F)O3)c1C(F)(F)F [Compound 256, 3-Fluoro-4-((5R,5aS,6S,9R)-1-fluoro-12-(((2R,7aS)-2-fluorotetrahydro-1H-pyrrolizin-7a(5H)-yl)methoxy)-5-(trifluoromethyl)-5a,6,7,8,9,10-hexahydro-5H-4-oxa-3,10a,11,13,14-pentaaza-6,9-methanonaphtho[1,8-ab]heptalen-2-yl)-6-methyl-5-(trifluoromethyl)pyridin-2-amine]",–,93.4 nM,13.9 nM
"C[C@@H]1Oc2nc(-c3cc(N)cnc3C(F)(F)F)c(F)c3nc(OC[C@@]45CCCN4C[C@H](F)C5)nc(c23)N2C[C@H]3CC[C@H](N3)[C@@H]12 [Compound 178, 5-((5S,5aS,6S,9R)-1-Fluoro-12-(((2R,7aS)-2-fluorotetrahydro-1H-pyrrolizin-7a(5H)-yl)methoxy)-5-methyl-5a,6,7,8,9,10-hexahydro-5H-4-oxa-3,10a,11,13,14-pentaaza-6,9-methanonaphtho[1,8-ab]heptalene-2-yl)-6-(trifluoromethyl)pyridin-3-amine]",133 nM,9280 nM,–
"Cc1cc(N)c(F)c(-c2nc3c4c(nc(OC[C@@]56CCCN5CC5(CC5(F)F)C6)nc4c2F)N2C[C@H]4CC[C@H](N4)[C@H]2[C@H](C)O3)c1C(F)(F)F (stereo partly drawn) [Compound 227, 3-((5S,5aS,6S,9R)-12-(((7a′S)-2,2-Difluorodihydro-1′H,3′H-spiro[cyclopropane-1,2′-pyrrolizin]-7a′(5′H)-yl)methoxy)-1-fluoro-5-methyl-5a,6,7,8,9,10-hexahydro-5H-4-oxa-3,10a,11,13,14-pentaaza[6,9]methanonaphtho[1,8-ab]heptalene-2-yl)-2-fluoro-5-methyl-4-(trifluoromethyl)aniline]",0.516 nM,679 nM,–
